The values below are quoted from earlier work in patent publication EP0527942B1, “COLONIC DRUG DELIVERY SYSTEM” (Perio Products Limited, priority 1990, dated 1991).

The data set relates to morphine-dependent rats. The following applies: for time to diarrhea, withdrawal behavior and tail skin temperature response: oral administration.

As for `C=C1CC[C@@]2(O)[C@H]3Cc4ccc(O)c5c4[C@@]2(CCN3CC2CC2)[C@H]1O5` [nalmefene], the “time to diarrhea, withdrawal behavior and tail skin temperature response” value is at most 15 min.

For `C=CCN1CC[C@]23c4c5ccc(O)c4O[C@H]2C(=O)CC[C@@]3(O)[C@H]1C5` [naloxone], the “time to diarrhea, withdrawal behavior and tail skin temperature response” value was at most 15 min.

As for nalmefene glucuronide, the time to diarrhea (direct colonic administration) was 5 to 8 min. Moreover, the “activity when administered subcutaneously” value (subcutaneous administration) is “inactive”.
